Data reported in PMC8025302, “Structural and biophysical characterization of the tandem substrate-binding domains of the ABC importer GlnPQ” (Open Biology, 2021).
“And” between values parts separate entries of the source, which are not always exact repeats. Equal entries are not always repeated.

Tests used:
SBD1 in SBD1-Δ5-SBD2 = biological target: T1, SBD1 in SBD1-Δ5-SBD2 (Lactococcus lactis, UniProt Q9CES5, DEL252-256); assay: Isothermal titration calorimetry, SBD1 site of linker deletion mutant; assay type: binding; conditions: ITC
T1 sequence (Q9CES5 27-484 DEL252-256): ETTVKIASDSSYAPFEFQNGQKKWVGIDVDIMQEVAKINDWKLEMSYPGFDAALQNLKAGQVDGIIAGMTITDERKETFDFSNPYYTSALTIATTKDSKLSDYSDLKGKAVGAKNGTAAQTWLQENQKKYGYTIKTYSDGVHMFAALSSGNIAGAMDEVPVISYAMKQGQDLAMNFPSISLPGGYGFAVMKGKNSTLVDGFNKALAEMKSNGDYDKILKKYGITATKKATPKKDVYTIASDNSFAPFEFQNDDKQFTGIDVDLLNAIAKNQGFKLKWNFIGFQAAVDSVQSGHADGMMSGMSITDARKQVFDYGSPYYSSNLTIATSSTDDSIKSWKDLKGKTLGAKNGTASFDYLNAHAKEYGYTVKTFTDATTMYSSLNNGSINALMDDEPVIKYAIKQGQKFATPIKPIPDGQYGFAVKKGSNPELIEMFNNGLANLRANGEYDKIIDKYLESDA

[1] = biological target: T2, SBD1^A (SBD1(T159C/G87C)) (Lactococcus lactis, UniProt Q9CES5, T159C, form not given); assay: smFRET / ALEX spectroscopy titration, single SBD1^A; assay type: binding; conditions: single domain SBD1^A, Alexa Fluor 555/647, read-out: apparent KD
T2 sequence (Q9CES5 29-251 T159C): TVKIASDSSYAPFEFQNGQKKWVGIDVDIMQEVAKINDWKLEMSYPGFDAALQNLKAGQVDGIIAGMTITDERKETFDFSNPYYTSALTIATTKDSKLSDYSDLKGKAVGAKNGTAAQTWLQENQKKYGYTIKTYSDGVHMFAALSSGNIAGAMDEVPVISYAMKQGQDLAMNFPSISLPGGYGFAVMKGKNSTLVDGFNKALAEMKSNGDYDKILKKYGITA

SBD1^A-2 = biological target: T3, SBD1^A-2 (Lactococcus lactis, UniProt Q9CES5, T159C, form not given); assay: smFRET / ALEX spectroscopy titration, tandem SBD1^A-2; assay type: binding; conditions: Alexa Fluor 555/647, read-out: apparent KD
T3 sequence (Q9CES5 27-484 T159C): T1 sequence (Q9CES5 27-484 DEL252-256)

SBD1-2(D417F) = biological target: T4, SBD1-2(D417F) (Lactococcus lactis, UniProt Q9CES5, D417F); assay: Isothermal titration calorimetry, tandem variant with inactive SBD2; conditions: binding to SBD1 in SBD1-2(D417F) (inactive SBD2); ITC
T4 sequence (Q9CES5 27-484 D417F): T1 sequence (Q9CES5 27-484 DEL252-256)

SBD1-2^C = biological target: T5, SBD1-2^C (Lactococcus lactis, UniProt Q9CES5, S451C/T369C); assay: smFRET / ALEX spectroscopy titration, tandem SBD1-2^C; assay type: binding; conditions: Alexa Fluor 555/647, read-out: apparent KD
T5 sequence (Q9CES5 27-484 T369C/S451C): T1 sequence (Q9CES5 27-484 DEL252-256)

SBD1(E184W)-2 = biological target: T6, SBD1(E184W)-2 (Lactococcus lactis, UniProt Q9CES5, E184W); assay: Isothermal titration calorimetry, tandem variant with inactive SBD1; conditions: binding to SBD2 in SBD1-2(E184W) (inactive SBD1); ITC
T6 sequence (Q9CES5 27-484 E184W): T1 sequence (Q9CES5 27-484 DEL252-256)

SBD2 in SBD1-Δ5-SBD2 = biological target: T7, SBD2 in SBD1-Δ5-SBD2 (Lactococcus lactis, UniProt Q9CES5, DEL252-256); assay: Isothermal titration calorimetry, SBD2 site of linker deletion mutant; assay type: binding; conditions: SBD1-Δ5-SBD2, high-affinity site (SBD2), no asparagine; ITC figure 6f
T7 sequence (Q9CES5 27-484 DEL252-256): T1 sequence (Q9CES5 27-484 DEL252-256)

[2] = biological target: T8, SBD2^C (SBD2(T369C/S451C)) (Lactococcus lactis, UniProt Q9CES5, S451C/T369C); assay: smFRET / ALEX spectroscopy titration, single SBD2^C; assay type: binding; conditions: single domain SBD2^C, Alexa Fluor 555/647, read-out: apparent KD
T8 sequence (Q9CES5 255-484 T369C/S451C): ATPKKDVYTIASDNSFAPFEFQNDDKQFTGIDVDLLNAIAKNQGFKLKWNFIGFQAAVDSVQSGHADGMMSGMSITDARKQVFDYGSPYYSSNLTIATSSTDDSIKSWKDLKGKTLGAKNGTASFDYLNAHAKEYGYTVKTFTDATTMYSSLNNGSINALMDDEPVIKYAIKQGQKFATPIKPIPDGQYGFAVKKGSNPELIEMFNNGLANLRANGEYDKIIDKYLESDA

For NC(=O)C[C@H](N)C(=O)O [asparagine], the Kd (SBD1 in SBD1-Δ5-SBD2) was 60 nM, the Kd [1] was 140 nM and the Kd (SBD1^A-2) was 75 nM. It also gave a Kd (SBD1-2(D417F)) of 400 ± 60 nM.

NC(=O)CC[C@H](N)C(=O)O [glutamine] was tested, and the Kd (SBD1 in SBD1-Δ5-SBD2) was 25800 nM and 19000 nM, the Kd (SBD1-2^C) was 900 nM and ~900 nM and the Kd (SBD1(E184W)-2) was 1500 ± 800 nM. The Kd [1] was 130000 nM, the Kd (SBD2 in SBD1-Δ5-SBD2) was 1700 nM and the Kd [2] was 1500 nM and ~1500 nM. It also gave a Kd (SBD1^A-2) of 300000 nM.
